Key:
[1] = test system: hyperphosphorylated SH SY5Y cells; assay: Saturation binding of Cy5-labeled aptamer, apparent Kd, SH-SY5Y cells; design: species or system human; conditions: read-out: apparent equilibrium dissociation constant (Kdapp)
Experimental: (§1) The apparent equilibrium dissociation constants (Kdapp) were measured by serial dilution of aptamer solutions with target hyperphosphorylated, non-target differentiated, and undifferentiated SH-SY5Y cells. The affinity of these aptamers was also tested with another immortal neural progenitor stem cell line, ReN-VM, in hyperphosphorylative and non-hyperphosphorylative conditions. The Kdapp for Tau_1 (SEQ ID NO: 5; DONGYBM) and Tau_3 (SEQ ID NO: 6; MUSQD) with hyperphosphorylated SH SY5Y cells is 0.167±0.015 nM and 0.194±0.032 nM; and for the ReN-VM cells 318.15±46.2 nM and 234.24±38.6 nM, respectively (FIG. 3).
(§2) Hyperphosphorylation. Hyperphosphorylation was induced in SH-SY5Y cells by addition of 30 nM OA (Sigma Aldrich, St. Louis, MO, #459620) in growth medium with 30 μM RA for 24 h. ReNcell VM were hyperphosphorylated using 100 nM QA (SigmaAldrich, St. Louis, MO, #P63204) in culture media for 24 h.
(§3) Aptamer binding studies. Aptamer binding studies were conducted with undifferentiated, differentiated, and hyperphosphorylated SH SY5Y and ReN cell VM grown in 96-wells seeded at 10000 per well. […]

ReN-VM cells = assay: Saturation binding of Cy5-labeled aptamer, apparent Kd, ReN-VM cells; conditions: read-out: apparent equilibrium dissociation constant (Kdapp)
Experimental: as §1, §2, §3

[2] = test system: hyperphosphorylative SH-SY5Y cells; assay: Binding studies with Cy5-labeled aptamer (cell staining); type: cell-based, human; conditions: 50 nM, 2 h at 4° C. (FIG. 2C)
Description: Negative selection eliminated certain sequences that were not specific to the hyperphosphorylative state or have a propensity for hepatocyte uptake. However, the relative abundance of key sequences increased steadily throughout the whole process. The 23 most abundant sequences at round 26 were identified, and their abundance throughout the SELEX process as calculated using AptaAligner is shown in FIG. 2B. The sequence Tau_1 (SEQ ID NO: 5; DONGYBM) was the most prevalent at cycle 26, representing 20.6% of the thioaptamers present. A single base difference from this sequence, Tau_3 (SEQ ID NO: 6; MUSQD), was the second most represented sequence (10.4%). […] The secondary structure of the aptamers Tau_1 (SEQ ID NO: 5; DONGYBM) and Tau_3 (SEQ ID NO: 6; MUSQD) calculated using mfold is shown in FIG. 2D. The sequences present at the final round were grouped by hierarchical clustering and sequence homology using the multiple sequence alignment code MAFFT showing five distinct families, which were also presented as a cladogram (using the Clustal Omega) showing the common ancestry between these five aptamers families (FIG. 2E).
Immunocytochemistry. […]

[3] = test system: OA treated differentiated SH-SY5Y cells; assay: Cell-SELEX sequence abundance by next-generation sequencing; design: species or system human; conditions: SELEX cycle 26
Experimental: Aptamer screening was performed using the cell-SELEX approach on differentiated SH-SY5Y cells in a hyperphosphorylative state. FIGS. 2A-2E describe how cell-SELEX was used to identify biomarkers of onset the of AD. OA treated differentiated SH-SY5Y cells were used as a surrogate for hyperphosphorylative neurons to screen DNA aptamers that specifically recognize the differences between the surfaces of treated and untreated cells, using the cell-SELEX methodology modified to capture membrane binding aptamers. A total of 26 cell SELEX cycles were performed. […]
Negative selection eliminated certain sequences that were not specific to the hyperphosphorylative state or have a propensity for hepatocyte uptake. […] The 23 most abundant sequences at round 26 were identified, and their abundance throughout the SELEX process as calculated using AptaAligner is shown in FIG. 2B. […] The secondary structure of the aptamers Tau_1 (SEQ ID NO: 5; DONGYBM) and Tau_3 (SEQ ID NO: 6; MUSQD) calculated using mfold is shown in FIG. 2D. […]
Next-Generation Sequencing (NGS). […] Equimolar quantities of the recovered TA sequences over the range were pooled together and sequenced by Next-Gen DNA sequencing using Ion318 chip (ThermoFisher, Waltham, MA). […]

[4] = test system: hyperphosphorylated SH-SY5Y cells; assay: Aptamer-based pulldown and mass spectrometry target identification; design: species or system human; conditions: pulldown / immunoprecipitation, mass-spectrometry
Experimental: To characterize the binding target of the aptamers, an aptamer-based pulldown assay was performed, along with aptamer-based immunoprecipitation, followed by mass-spectrometry. The assay was performed for both Tau_1 (SEQ ID NO: 5; DONGYBM) and Tau_3 (SEQ ID NO: 6; MUSQD) aptamers. […] The surface expression of Keratin 6a, 6b was similar on wild-type and transgenic tissue sections, whereas the VIM expression was higher in the Tg mice (FIG. 6C).
Target Identification. The protein targets of Tau_1 (SEQ ID NO: 5; DONGYBM), Tau_3 (SEQ ID NO: 6; MUSQD), Tau-4, and Tau-5 were identified by affinity-pull down using the selected aptamers as the capturing reagent followed by mass-spectroscopy. A scrambled DNA sequence, R2, was used as a control. The hyperphosphorylated SH-SY5Y cells, at 90-95% confluence, were washed with cold PBS buffer and incubated with biotinylated selected aptamers with […] each at 4° C. in PBS, respectively. After 2 hours of gentle agitation, SH-SY5Y cells were cross-linked with 1% formaldehyde for 10 min at rt. The formaldehyde cross-linking was quenched with glycine. Cells were scraped from the plate, washed, lysed with lysing buffer (Thermofisher Scientific, #87787), and treated with protease inhibitor mixture. The lysates were freeze-thawed for 30 min on ice and cleared by centrifuging at 10,000×g for 2 min at 4° C. […] Each sample was analyzed in triplicate. […]

tetrameric VIM = tetrameric VIM (Homo sapiens, UniProt P08670); conditions: cited from earlier work
MAO-B enzyme = molecular target: T1, MAO-B enzyme (Homo sapiens, UniProt P27338); conditions: brain; cited from earlier work
T1 sequence (P27338 1-520): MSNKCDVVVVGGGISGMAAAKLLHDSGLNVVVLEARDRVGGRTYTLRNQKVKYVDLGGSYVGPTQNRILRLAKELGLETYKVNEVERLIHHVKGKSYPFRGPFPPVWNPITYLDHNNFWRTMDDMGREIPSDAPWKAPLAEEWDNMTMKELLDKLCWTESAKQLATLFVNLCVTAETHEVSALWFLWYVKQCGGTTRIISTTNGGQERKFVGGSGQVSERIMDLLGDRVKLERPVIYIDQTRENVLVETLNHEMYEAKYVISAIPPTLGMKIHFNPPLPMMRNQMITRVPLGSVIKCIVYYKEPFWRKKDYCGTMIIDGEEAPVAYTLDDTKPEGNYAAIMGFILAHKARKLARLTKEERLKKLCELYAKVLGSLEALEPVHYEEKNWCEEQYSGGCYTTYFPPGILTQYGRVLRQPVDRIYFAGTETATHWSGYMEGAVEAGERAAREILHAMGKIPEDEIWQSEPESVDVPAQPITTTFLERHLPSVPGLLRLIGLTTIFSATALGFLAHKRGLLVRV

Sequence of tetrameric VIM (P08670 whole entry): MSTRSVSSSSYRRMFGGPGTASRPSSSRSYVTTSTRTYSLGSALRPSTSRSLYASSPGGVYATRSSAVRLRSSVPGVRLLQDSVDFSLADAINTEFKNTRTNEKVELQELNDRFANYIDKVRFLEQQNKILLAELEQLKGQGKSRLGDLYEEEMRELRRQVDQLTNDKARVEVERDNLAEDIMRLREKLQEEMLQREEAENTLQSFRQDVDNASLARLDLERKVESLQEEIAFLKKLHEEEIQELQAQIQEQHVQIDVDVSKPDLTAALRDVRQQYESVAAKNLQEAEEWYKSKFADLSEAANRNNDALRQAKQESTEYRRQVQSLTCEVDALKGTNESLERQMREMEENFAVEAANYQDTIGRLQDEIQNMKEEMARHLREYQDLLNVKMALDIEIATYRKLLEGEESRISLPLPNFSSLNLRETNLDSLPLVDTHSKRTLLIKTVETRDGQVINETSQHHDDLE

Compound | Kd [1] [nM] | Kd (ReN-VM cells) [nM] | binding of Cy5-labeled aptamer to cells [2] | fraction of the thioaptamers present (abundance) [3] [%] | possible binding targets by abundance score ranking [4] | binding site on vimentin (tetrameric VIM) | off-target binding (MAO-B enzyme)
Tau_1: DNA thioaptamer CCCCCCACGGTCTCCGCTCCACAAGTTCAC (DNA, backbone and methylation of C not given here; further chemistry not fully specified) | 0.167 ± 0.015 | 318 ± 46.2 | elevated binding levels with the hyperphosphorylative cells | 20.6 | keratin 6a, Keratin 6b, and VIM | – | –
CC1=C(CO)C(=O)O[C@@H]([C@@H](C)[C@H]2CC[C@H]3[C@@H]4C[C@H]5O[C@]56[C@@H](O)C=CC(=O)[C@]6(C)[C@H]4CC[C@]23C)C1 [Withaferin A] | – | – | – | – | – | binds the conserved cysteine 382 residue on tetrameric VIM | –
Tau_3: DNA thioaptamer CCCCCCACGGTCTCCGCTCCACAAGTCCAC | 0.194 ± 0.032 | 234 ± 38.6 | elevated binding levels with the hyperphosphorylative cells | 10.4 | keratin 6a, Keratin 6b, and VIM | – | –
Fc1ccc(-c2ccc3c(c2)[nH]c2ccncc23)cn1 [Flortaucipir] | – | – | – | – | – | – | binds the MAO-B enzyme in the brain
